These are literature values, as cited in PubChem BioAssay AID1259409 (Chemical Carcinogenesis Research Information System (CCRIS), 2018).

In this data set the test system is rodent chemically induced tumor inhibition, incidence and multiplicity. As to the kind of experiment: CCRIS tumor inhibitor studies. From the text: The CCRIS database contains chemical records with carcinogenicity, mutagenicity, tumor promotion, and tumor inhibition test results. It was developed by the National Cancer Institute (NCI). Data are derived from studies cited in primary journals, current awareness tools, NCI reports, and other sources. Test results have been reviewed by experts in carcinogenesis and mutagenesis.
CCRIS provides historical information from the years 1985 - 2011. It is no longer updated.
This is an archive assay for CCRIS tumor inhibitor studies.

Several values for one entry are separate records, joined by “and”; a condition that tells them apart may be missing. Equal entries are not always repeated.

With `S=C=NCCc1ccccc1`, the “tumour outcome (control, treated, inhibition, significance)” value was 8/40 (20%), 6/40 (15%), 25%, not calculated (Carcinogen: 4-(N-NITROSOMETHYLAMINO)-1-(3-PYRIDYL)-1-BUTANONE, 64091-91-4, Dose [Inhibitor]: 0, 3 UMOL/G/DIET BEGINNING 1 WK PRIOR TO CARCINOGEN TREATMENT AND CONTINUING FOR 21 WK (STUDY DURATION: 104 WK), Route [Inhibitor]: ORAL, Species: RAT, Strain/Sex: F344/MALE, Target Tissue: Type of Lesion: NASAL CAVITY: BENIGN TUMOR, Dose [Carcinogen]: 1.76 MG/KG 3/WK FOR 20 WK, Promoter: NONE USED); 3/40 (8%), 1/40 (3%), 63%, not calculated (Carcinogen: 4-(N-NITROSOMETHYLAMINO)-1-(3-PYRIDYL)-1-BUTANONE, 64091-91-4, Dose [Inhibitor]: 0, 3 UMOL/G/DIET BEGINNING 1 WK PRIOR TO CARCINOGEN TREATMENT AND CONTINUING FOR 21 WK (STUDY DURATION: 104 WK), Route [Inhibitor]: ORAL, Species: RAT, Strain/Sex: F344/MALE, Target Tissue: Type of Lesion: NASAL CAVITY: SQUAMOUS-CELL CARCINOMA, Dose [Carcinogen]: 1.76 MG/KG 3/WK FOR 20 WK, Promoter: NONE USED); 100%, 89%, 11%, not calculated and 100%, 93%, 7%, not calculated (Carcinogen: 4-(N-NITROSOMETHYLAMINO)-1-(3-PYRIDYL)-1-BUTANONE, 64091-91-4, Dose [Inhibitor]: 0, 5 UMOL/D FOR 4 CONSECUTIVE DAYS (STUDY DURATION: 16.5 WK), Route [Inhibitor]: GAVAGE, Species: MOUSE, Strain/Sex: STRAIN-A/FEMALE, Target Tissue: Type of Lesion: LUNG: ADENOMA, Dose [Carcinogen]: 10 UMOL ONCE 2 HR POST LAST AGENT DOSE, Promoter: NONE USED); 100%, 30%, 70%, p<0.01 (Carcinogen: 4-(N-NITROSOMETHYLAMINO)-1-(3-PYRIDYL)-1-BUTANONE, 64091-91-4, Dose [Inhibitor]: 0, 25 UMOL/D FOR 4 CONSECUTIVE DAYS (STUDY DURATION: 16.5 WK), Route [Inhibitor]: GAVAGE, Species: MOUSE, Strain/Sex: STRAIN-A/FEMALE, Target Tissue: Type of Lesion: LUNG: ADENOMA, Dose [Carcinogen]: 10 UMOL ONCE 2 HR POST LAST AGENT DOSE, Promoter: NONE USED); 70%, 85%, -21%, not significant (Carcinogen: 7,12-DIMETHYLBENZ[A]ANTHRACENE, 57-97-6, Dose [Inhibitor]: 0, 600 PPM IN DIET FOR DURATION OF STUDY BEGINNING 1 WK PRIOR TO CARCINOGEN DOSE (STUDY DURATION: 107 D), Route [Inhibitor]: ORAL, Species: RAT, Strain/Sex: SPRAGUE-DAWLEY/FEMALE, Target Tissue: Type of Lesion: MAMMARY GLAND: ADENOCARCINOMA, Dose [Carcinogen]: 12 MG ONCE, Promoter: NONE USED); 70%, 75%, -7%, not significant (Carcinogen: 7,12-DIMETHYLBENZ[A]ANTHRACENE, 57-97-6, Dose [Inhibitor]: 0, 1200 PPM IN DIET FOR DURATION OF STUDY BEGINNING 1 WK PRIOR TO CARCINOGEN DOSE (STUDY DURATION: 107 D), Route [Inhibitor]: ORAL, Species: RAT, Strain/Sex: SPRAGUE-DAWLEY/FEMALE, Target Tissue: Type of Lesion: MAMMARY GLAND: ADENOCARCINOMA, Dose [Carcinogen]: 12 MG ONCE, Promoter: NONE USED). Also, the “tumour outcome (control, treated, inhibition, significance)” value (Carcinogen: 7,12-DIMETHYLBENZ[A]ANTHRACENE, 57-97-6, Dose [Inhibitor]: 5.5 MG/G DIET AT AGE 9 WK SIMULTANEOUSLY WITH CARCINOGEN 3/WK FOR 4 WK (STUDY DURATION: 20 WK), Route [Inhibitor]: ORAL, Species: MOUSE, Strain/Sex: ICR/FEMALE, Target Tissue: Type of Lesion: FORESTOMACH: TUMOR, Dose [Carcinogen]: 0.05 MG/G DIET AT AGE 9 WK 3/WK FOR 4 WK, Promoter: NONE USED) is listed as 93%, 12%, 87%, p<0.001; the “tumour outcome (control, treated, inhibition, significance)” value (Carcinogen: 7,12-DIMETHYLBENZ[A]ANTHRACENE, 57-97-6, Dose [Inhibitor]: 5.5 MG/G DIET AT AGE 9 WK SIMULTANEOUSLY WITH CARCINOGEN 3/WK FOR 4 WK (STUDY DURATION: 20 WK), Route [Inhibitor]: ORAL, Species: MOUSE, Strain/Sex: ICR/FEMALE, Target Tissue: Type of Lesion: LUNG: ADENOMA, Dose [Carcinogen]: 0.05 MG/G DIET AT AGE 9 WK 3/WK FOR 4 WK, Promoter: NONE USED) is reported as 100%, 89%, 11%, not significant; the “tumour outcome (control, treated, inhibition, significance)” value (Carcinogen: 7,12-DIMETHYLBENZ[A]ANTHRACENE, 57-97-6, Dose [Inhibitor]: 55 MG ONCE 4 HR BEFORE DMBA TREATMENT (STUDY DURATION: 18 WK), Route [Inhibitor]: INTRAGASTRIC, Species: RAT, Strain/Sex: SPRAGUE-DAWLEY/FEMALE, Target Tissue: Type of Lesion: MAMMARY GLAND: TUMOR, Dose [Carcinogen]: 12 MG IN 1 ML OLIVE OIL AT AGE 7 WK, Promoter: NONE USED) is reported as 100%, 43%, 57%, p<0.001; the “tumour outcome (control, treated, inhibition, significance)” value (Carcinogen: BENZO[A]PYRENE [50-32-8], Dose [Inhibitor]: 0.3 UMOL/G IN DIET FOR 10 WK BEGINNING 1 WK PRIOR TO FIRST CARCINOGEN DOSE (STUDY DURATION: 28 WK), Route [Inhibitor]: ORAL, Species: MOUSE, Strain/Sex: A/J/FEMALE, Target Tissue: Type of Lesion: LUNG: TUMOR, Dose [Carcinogen]: 3 UMOL IN 0.1 ML COTTONSEED OIL 1X/WK FOR 8 WK (STUDY DURATION: 28 WK), Promoter: NONE) is on record as 100%, 100%, 0%, not calculated; the “tumour outcome (control, treated, inhibition, significance)” value (Carcinogen: BENZO[A]PYRENE [50-32-8], Dose [Inhibitor]: 1 UMOL/G IN DIET FOR 10 WK BEGINNING 1 WK PRIOR TO FIRST CARCINOGEN DOSE (STUDY DURATION: 28 WK), Route [Inhibitor]: ORAL, Species: MOUSE, Strain/Sex: A/J/FEMALE, Target Tissue: Type of Lesion: LUNG: TUMOR, Dose [Carcinogen]: 3 UMOL IN 0.1 ML COTTONSEED OIL 1X/WK FOR 8 WK (STUDY DURATION: 28 WK), Promoter: NONE) was 100%, 100%, 0%, not calculated; the “tumour outcome (control, treated, inhibition, significance)” value (Carcinogen: BENZO[A]PYRENE [50-32-8], Dose [Inhibitor]: 3 UMOL/G IN DIET FOR 10 WK BEGINNING 1 WK PRIOR TO FIRST CARCINOGEN DOSE (STUDY DURATION: 28 WK), Route [Inhibitor]: ORAL, Species: MOUSE, Strain/Sex: A/J/FEMALE, Target Tissue: Type of Lesion: LUNG: TUMOR, Dose [Carcinogen]: 3 UMOL IN 0.1 ML COTTONSEED OIL 1X/WK FOR 8 WK (STUDY DURATION: 28 WK), Promoter: NONE) is 100%, 100%, 0%, not calculated. Moreover, the “tumour outcome (control, treated, inhibition, significance)” value (Carcinogen: BENZO[A]PYRENE, 50-32-8, Dose [Inhibitor]: 0, 6.7 UMOL IN COTTONSEED OIL 15 MIN PRIOR TO CARCINOGEN DOSES 1/2 WK FOR 3 TREATMENTS (STUDY DURATION: 26 WK), Route [Inhibitor]: GAVAGE, Species: MOUSE, Strain/Sex: STRAIN-A/FEMALE, Target Tissue: Type of Lesion: FORESTOMACH: TUMOR, Dose [Carcinogen]: 7.9 UMOL IN COTTONSEED OIL 1/2 WK FOR 3 TREATMENTS, Promoter: NONE USED) is 95%, 90%, 5%, not significant and the “tumour outcome (control, treated, inhibition, significance)” value (Carcinogen: BENZO[A]PYRENE, 50-32-8, Dose [Inhibitor]: 0, 6.7 UMOL IN COTTONSEED OIL 15 MIN PRIOR TO CARCINOGEN DOSES 1/2 WK FOR 3 TREATMENTS (STUDY DURATION: 26 WK), Route [Inhibitor]: GAVAGE, Species: MOUSE, Strain/Sex: STRAIN-A/FEMALE, Target Tissue: Type of Lesion: LUNG: TUMOR, Dose [Carcinogen]: 7.9 UMOL IN COTTONSEED OIL 1/2 WK FOR 3 TREATMENTS, Promoter: NONE USED) was 95%, 90%, 5%, not significant. Also, where the note is “Carcinogen: BENZO[A]PYRENE, 50-32-8, Dose [Inhibitor]: 0, 5 UMOL IN ACETONE 4 HR PRIOR TO CARCINOGEN DOSE (STUDY DURATION: 20 WK), Route [Inhibitor]: DERMAL, Species: MOUSE, Strain/Sex: STRAIN-A/FEMALE, Target Tissue: Type of Lesion: SKIN: TUMOR, Dose [Carcinogen]: 0.1 UMOL IN ACETONE ONCE, Promoter: 12-O-TETRADECANOYLPHORBOL-13-ACETATE, 16561-29-8”, the outcome was 70%, 65%, 7%, not significant at 15 wk; 95%, 85%, 11%, not significant at 20 wk.
